Consider 37 molecules from ChEMBL document CHEMBL3997824, “Synthesis and biological evaluation of potential inhibitors of the cysteine proteases cruzain and rhodesain designed by molecular simplification” (Bioorg Med Chem, 2017).

Series [1] can be described thus: Selectivity index, ratio of CC50 for mouse L929 cells to IC50 for Trypanosoma cruzi Tulahuen trypomastigote forms infected in mouse L929 cells. The class given is toxicity, cell-based. The note with it: read-out: Ratio CC50/IC50.
Series [2] concerns Trypanosoma brucei. Put plainly: Inhibition of recombinant Trypanosoma brucei rhodesain at 100 uM in AcOH/AcONA buffer using Z-phe-Arg-amidomethylcoumarin as substrate by fluorometric method relative to control.
Series [3] concerns the target Cruzipain (Trypanosoma cruzi) (UniProt P25779). Put plainly: Inhibition of recombinant Trypanosoma cruzi cruzain at 100 uM in AcOH/AcONA buffer using Z-phe-Arg-amidomethylcoumarin as substrate by fluorometric method relative to control.
The nature of series [4]: Cytotoxicity against mouse L929 cells after 96 hrs by alamar blue assay. The class given is cell-based.
Series [5] can be described thus: Inhibition of recombinant Trypanosoma brucei rhodesain in AcOH/AcONA buffer using Z-phe-Arg-amidomethylcoumarin as substrate by fluorometric method.
Series [6] relates to Trypanosoma cruzi. The series can be described thus: Antitrypanosomal activity against Trypanosoma cruzi Tulahuen trypomastigote forms infected in mouse L929 cells after 96 hrs by chlorophenol red-beta-D-galactopyranoside dye based assay. The note with it: L929, 96 h. The format is functional, cell-based.
Series [7] addresses Cruzipain (Trypanosoma cruzi) (UniProt P25779). The series can be described thus: Inhibition of recombinant Trypanosoma cruzi cruzain at 100 uM using Z-phe-Arg-amidomethylcoumarin as substrate by fluorometric method relative to control.
The subject of series [8] is Trypanosoma brucei. Put plainly: Inhibition of recombinant Trypanosoma brucei rhodesain at 100 uM using Z-phe-Arg-amidomethylcoumarin as substrate by fluorometric method relative to control.
Series [9] concerns Trypanosoma cruzi. The series can be described thus: Antitrypanosomal activity against Trypanosoma cruzi Tulahuen trypomastigote forms infected in mouse L929 cells up to 250 uM after 96 hrs by chlorophenol red-beta-D-galactopyranoside dye based assay. The format is functional, cell-based.
Series [10] is described as follows: Inhibition of recombinant Trypanosoma brucei rhodesain using Z-phe-Arg-amidomethylcoumarin as substrate by fluorometric method.
In series [11] the target is Cathepsin S (Homo sapiens) (UniProt P25774). The series can be described thus: Inhibition of recombinant human cathepsin S at 100 uM using cbz-val-val-arg-7-amino-4-methylcoumarin as substrate preincubated for 5 mins followed by substrate addition measured for 15 mins by fluorescence assay relative to control.
Sequence of Cathepsin S (Homo sapiens) (P25774 115-331 limits assumed): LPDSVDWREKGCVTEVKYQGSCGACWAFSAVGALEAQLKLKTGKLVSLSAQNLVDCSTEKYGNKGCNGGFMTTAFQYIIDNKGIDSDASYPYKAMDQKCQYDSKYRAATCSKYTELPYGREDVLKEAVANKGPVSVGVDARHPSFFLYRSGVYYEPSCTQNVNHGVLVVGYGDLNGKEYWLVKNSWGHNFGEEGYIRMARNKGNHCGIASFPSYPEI
The target in series [12] is Cathepsin B (Rattus norvegicus) (UniProt P00787). The series can be described thus: Inhibition of rat cathepsin B at 100 uM using cbz-phe-Arg-amidomethylcoumarin as substrate measured for 15 mins by fluorescence assay relative to control.
Sequence of Cathepsin B (Rattus norvegicus) (P00787 80-333 limits assumed): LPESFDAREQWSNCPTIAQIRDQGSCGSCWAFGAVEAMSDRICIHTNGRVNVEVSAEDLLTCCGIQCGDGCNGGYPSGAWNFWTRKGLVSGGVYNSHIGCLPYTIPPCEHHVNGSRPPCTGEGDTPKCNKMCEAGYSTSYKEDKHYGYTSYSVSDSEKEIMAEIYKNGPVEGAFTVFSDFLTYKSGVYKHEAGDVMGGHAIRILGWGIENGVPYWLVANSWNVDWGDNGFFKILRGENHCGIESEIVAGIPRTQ
Series [13] deals with T1, Cruzipain (Trypanosoma cruzi, UniProt P25779). The series can be described thus: Inhibition of recombinant Trypanosoma cruzi cruzain using Z-phe-Arg-amidomethylcoumarin as substrate by fluorometric method.
T1 sequence (P25779 whole entry): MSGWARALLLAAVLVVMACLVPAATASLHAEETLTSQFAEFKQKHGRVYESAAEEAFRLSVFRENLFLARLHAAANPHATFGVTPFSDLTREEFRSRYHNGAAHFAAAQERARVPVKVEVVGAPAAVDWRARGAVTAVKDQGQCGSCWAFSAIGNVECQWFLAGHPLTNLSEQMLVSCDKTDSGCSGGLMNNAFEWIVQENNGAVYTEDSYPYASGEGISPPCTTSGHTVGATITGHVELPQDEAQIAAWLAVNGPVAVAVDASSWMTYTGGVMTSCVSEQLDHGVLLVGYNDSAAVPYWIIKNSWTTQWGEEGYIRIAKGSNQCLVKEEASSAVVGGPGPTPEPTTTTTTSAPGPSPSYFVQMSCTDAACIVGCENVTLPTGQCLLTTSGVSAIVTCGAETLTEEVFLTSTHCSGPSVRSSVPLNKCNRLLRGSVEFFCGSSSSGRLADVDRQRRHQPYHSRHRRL
Series [14] concerns the target Cathepsin B (Rattus norvegicus) (UniProt P00787). The series can be described thus: Inhibition of rat cathepsin B at 100 uM using cbz-phe-Arg-amidomethylcoumarin as substrate preincubated for 5 mins followed by substrate addition measured for 15 mins by fluorescence assay relative to control.
In series [15] the target is Cathepsin S (Homo sapiens) (UniProt P25774). Put plainly: Inhibition of recombinant human cathepsin S at 100 uM using cbz-val-val-arg-7-amino-4-methylcoumarin as substrate measured for 15 mins by fluorescence assay relative to control.
Series [16] has as its target T1, Cruzipain. Put plainly: Competitive inhibition of recombinant Trypanosoma cruzi cruzain in presence of varying levels of Z-phe-Arg-amidomethylcoumarin substrate by Lineweaver-Burk plot analysis.
Series [17] concerns the target Cathepsin B (Rattus norvegicus) (UniProt P00787). The series can be described thus: Inhibition of rat cathepsin B at 1 uM using cbz-phe-Arg-amidomethylcoumarin as substrate preincubated for 5 mins followed by substrate addition measured for 15 mins by fluorescence assay relative to control.
The target in series [18] is Cathepsin S (Homo sapiens) (UniProt P25774). The series can be described thus: Inhibition of recombinant human cathepsin S at 1 uM using cbz-val-val-arg-7-amino-4-methylcoumarin as substrate preincubated for 5 mins followed by substrate addition measured for 15 mins by fluorescence assay relative to control.
For series [19] the target is unchanged. Put plainly: Inhibition of recombinant human cathepsin S at 1 uM using cbz-val-val-arg-7-amino-4-methylcoumarin as substrate measured for 15 mins by fluorescence assay relative to control.
The target in series [20] is Cathepsin B (Rattus norvegicus) (UniProt P00787). Put plainly: Inhibition of rat cathepsin B at 1 uM using cbz-phe-Arg-amidomethylcoumarin as substrate measured for 15 mins by fluorescence assay relative to control.

Structures are written as SMILES. Active and inactive are the calls of the source. The rule behind the calls is not given here. A value given as a limit tells only on which side of the number the result lay.

Sequence of Cruzipain (Trypanosoma cruzi) (P25779 123-467 limits assumed): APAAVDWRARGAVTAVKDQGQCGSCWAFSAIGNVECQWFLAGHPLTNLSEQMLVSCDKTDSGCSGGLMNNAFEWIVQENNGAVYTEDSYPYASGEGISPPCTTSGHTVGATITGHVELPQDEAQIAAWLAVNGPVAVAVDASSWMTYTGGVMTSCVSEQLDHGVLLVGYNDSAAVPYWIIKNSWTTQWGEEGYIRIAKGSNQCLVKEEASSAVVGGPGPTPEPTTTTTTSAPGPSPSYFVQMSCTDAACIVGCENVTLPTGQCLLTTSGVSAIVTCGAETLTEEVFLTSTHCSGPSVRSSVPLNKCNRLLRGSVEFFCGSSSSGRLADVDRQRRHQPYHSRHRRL

Turning to `NCCNc1ccnc2cc(Cl)ccc12`, the selectivity ratio in series [1] is less than 2.5. Moreover, the inhibition in series [2] amounted to 62%; in [3] it was 44%. The CC50 at 96 h in [4] was less than 194 µM. Also, the results for the IC50 in series [5] and in series [6] were 126 µM and 77.5 µM, respectively.
Regarding `c1ccc2[nH]c(CNC3CCCCC3)cc2c1`, the inhibition was determined as 6% in [7] and 8% in [8]. Moreover, in series [9], the outcome was inactive.
On to `c1c[nH]c(CN2CCOCC2)c1`, for which the inhibition in series [7] was found to be 23.6%; in [8] it was 66.7%. The result in series [9] was inactive. In [10], the IC50 worked out at 55 µM.
Consider `O=C(CNc1ccnc2cc(Cl)ccc12)N1CCOCC1`, for which the figures for the inhibition in [7] and in series [8] were 55% and 61%, respectively. In series [9], the result was inactive. For the same molecule, the IC50 in series [10] was found to be 48 µM.
For the molecule `Clc1ccc2[nH]c(CNC3CCCCC3)cc2c1`, the figures for the inhibition in [7] and in series [8] were 8% and 4%, respectively. For the same molecule, in [1], the selectivity ratio amounted to 1.2. In series [4], this molecule yielded a CC50 at 96 h of 12.5 µM. In series [6], it took 10.7 µM to reach half-maximal inhibition (IC50).
In the case of `Clc1ccc2c(NCCCN3CCOCC3)ccnc2c1`, the inhibition in series [7] came out at 88%; in [11], 10%; in [12] it was 6%; in [14] it was 8%; in [15], 13%; in series [8] it was 51%. In [1], the selectivity ratio came to 1.8. For the same molecule, the IC50 is 15 µM in [13] and 67.7 µM in series [6]. In addition, the Ki in series [16] was 12.1 µM. This molecule also showed a CC50 at 96 h in series [4] of 123 µM.
For `c1ccc2[nH]c(CNCCCN3CCOCC3)cc2c1`, the figures for the inhibition in series [7] and in series [8] were 4% and 7%, respectively. Besides, the outcome in [9] was inactive.
As to `OCCNc1ccnc2cc(Cl)ccc12`, the results for the inhibition in series [7] and in series [8] were 60% and 61%, respectively. Besides, the results for the IC50 in [13] and in series [10] were 62 µM and 58 µM, respectively. Moreover, the result in series [9] was inactive.
`NCCCNc1ccnc2cc(Cl)ccc12`: the inhibition in series [2] was 53%; in [3] it was 39%. Moreover, in series [9], the result was inactive.
As to `O=C(CN1CCc2ccccc2C1)Nc1ccc(Cl)cc1`, the results for the inhibition in series [7] and in series [8] were 18.2% and 20.5%, respectively. For the same molecule, the selectivity ratio in series [1] was less than 1.9. This molecule also had a cytotoxic concentration (CC50) at 96 h in series [4] of less than 125 µM. Further, the IC50 in series [6] was 64.2 µM.
On the same counts, the results for `Cc1ccc(NC(=O)CN2CCc3ccccc3C2)cc1` are 15.3%, 16.7%, 1.5, 125 µM and 83.3 µM.
Turning to `CN1CCN(CC(=O)Nc2ccc(Cl)cc2)CC1`, the inhibition in series [7] turned out to be 28.5%; in series [8], 22.6%. In addition, the outcome in series [9] was inactive.
In the case of `CN1CCN(CC(=O)Nc2ccccc2)CC1`, the inhibition came to 38.6% in [7] and 7.4% in series [8]. Moreover, the result in series [9] was inactive.
Take `Clc1ccc2c(NCc3ccccc3)ccnc2c1`: the inhibition worked out at 65% in series [7]; 12% in [11]; 2% in [12]; 9% in series [14]; 17% in [15]; 71% in series [8]. Besides, the selectivity ratio in series [1] came out at 1.2. Moreover, the IC50 was determined as 44 µM in series [13], 37.2 µM in [6] and 34.2 µM in [10]. The molecule further displayed a CC50 at 96 h in series [4] of 46.5 µM.
As for `O=C(CNCCCN1CCOCC1)Nc1ccccc1`, the inhibition in series [7] amounted to 2.9%; in series [8], 7.4%. Besides, in [9], the result was inactive.
With `c1ccc(CNCc2cc3ccccc3[nH]2)cc1`, the results for the inhibition in [7] and in series [8] were 9% and 8%, respectively. Besides, the result in series [9] was inactive.
In the case of `c1cc(NCCCN2CCOCC2)ncn1`, the inhibition was determined as 1% in series [7] and 5% in series [8]. In series [9], the outcome was inactive.
On the same counts, the results for `Cc1ccc(NC(=O)CNCCCN2CCOCC2)cc1` are 3.5%, 13.1% and “inactive”.
For `CC(C)C[C@H](NC(=O)[C@@H]1O[C@H]1C(=O)O)C(=O)NCCCCN=C(N)N`, the inhibition was 100% in series [17], 100% in series [18], 100% in [19] and 99% in series [20].
In the case of `O=C(CN1CCc2ccccc2C1)Nc1ccccc1`, the inhibition in series [7] came to 7.7%; in series [8] it was 19.1%. The selectivity ratio in series [1] was found to be 1.5. In [4], this molecule returned a CC50 at 96 h of 375 µM. For the same molecule, in [6], the IC50 came out at 245 µM.
With `Cc1ccc(NC(=O)CN2CCN(C)CC2)cc1`, the inhibition in series [7] stood at 0%; in [8], 15.5%. For the same molecule, the outcome in series [9] was inactive.
As for `CCCNc1ccnc2cc(Cl)ccc12`, the inhibition in series [7] was found to be 53%; in [8], 49%. In addition, the selectivity ratio in series [1] came out at 2.3. This molecule also displayed a CC50 at 96 h in [4] of 283 µM. Also, the IC50 in series [6] was found to be 125 µM.
On the same counts, the results for `c1ccc2c(c1)CCN(c1ccncn1)C2` are 15%, 20%, 128, 400 µM and 3.1 µM.
As to `Clc1ccc2[nH]c3c(NCCCN4CCOCC4)ncnc3c2c1`, the IC50 in [13] was 15 µM.
As for `Clc1ccc2c(NCCN3CCCCC3)ccnc2c1`, the inhibition in series [7] was determined as 43%; in [8] it was 56%. For the same molecule, the selectivity ratio in series [1] was 1.1. The same molecule gave a CC50 at 96 h in [4] of 64.5 µM. In series [6], this molecule came in with an IC50 of 57.6 µM.
As for `Clc1ccc2c(NCCN3CCOCC3)ccnc2c1`, the inhibition amounted to 56% in [7] and 61% in [8]. Further, the IC50 in [13] worked out at 41 µM; in series [10] it was 61 µM. Besides, in series [9], the outcome was inactive.
Regarding `CN1CCN(c2ccncn2)CC1`, the inhibition in [7] turned out to be 5%; in [8], 13%. In [9], the result was inactive.
Taken in the same sequence, the figures for `O=C(CNCCCN1CCOCC1)Nc1ccc(Cl)cc1` were 16.5%, 21% and “inactive”.
Take `Clc1ccc2[nH]c(CNCc3ccccc3)cc2c1`: the inhibition was found to be 4% in series [7] and 5% in series [8]. For the same molecule, the selectivity ratio in series [1] was 1.2. Moreover, the CC50 at 96 h in series [4] turned out to be 31 µM. Half-maximal inhibition in series [6] (IC50) was put at 25 µM.
On to `CN1CCN(Cc2ccc[nH]2)CC1`, for which the inhibition in [7] was 10.9%; in [8], 32.1%. Moreover, the outcome in series [9] was inactive.
Consider `c1c[nH]c(CNCCCN2CCOCC2)c1`, for which the inhibition in series [7] was determined as 0%; in [8] it was 15.1%. The result in [9] was inactive.
As for `O=C(Cn1ccnc1[N+](=O)[O-])NCc1ccccc1` [BENZNIDAZOLE], the IC50 in series [6] is 3.8 µM.
Regarding `Clc1ccc2[nH]c(CNCCCN3CCOCC3)cc2c1`, the inhibition in [7] was 15%; in [8], 1%. Also, in series [1], the selectivity ratio was found to be 1.9. This molecule also showed a CC50 at 96 h in series [4] of 75 µM. In addition, half-maximal inhibition in [6] (IC50) required 38.9 µM.
`OCCN1CCN(c2ccnc3cc(Cl)ccc23)CC1`: the values for the inhibition in series [2] and in [3] were 53% and 42.6%, respectively. In addition, the outcome in series [9] was inactive.
Consider `c1c[nH]c(CN2CCc3ccccc3C2)c1`, for which the figures for the inhibition in [7] and in series [8] were 3.2% and 49.1%, respectively. For the same molecule, the outcome in series [9] was inactive.
Consider `Clc1ccc2c(NCCCN3CCCCC3)ccnc2c1`, for which the figures for the inhibition in series [7] and in series [8] were 53% and 61%, respectively. Moreover, in series [1], the selectivity ratio was determined as 1.6. This molecule returned a half-maximal cytotoxic concentration (CC50) at 96 h in series [4] of 61.5 µM. In series [6], this molecule showed an IC50 of 38.2 µM.
Turning to `OCCCNc1ccnc2cc(Cl)ccc12`, the inhibition in series [7] amounted to 67%; in series [11], 4%; in series [12], 8%; in series [14], 5%; in series [15], 14%; in series [8], 63%. Besides, the IC50 in [13] was determined as 28 µM; in series [10] it was 72 µM. Moreover, the outcome in series [9] was inactive.
